Consider eight compounds from patent US10004701B2, “Methods and compositions for treating infection” (UNIVERSITY OF ROCHESTER, priority 2012, dated 2018).

The structures appear in SMILES notation. Where a name gives a salt, the structure may show the parent alone. Read-outs that look alike come from different tables or passages of the source.

Common to all, as to assay: AK assay 384-well format, Prestwick library screening
Experiment [1] relates to P. aeruginosa. It is filed as cell-based, Pseudomonas aeruginosa. The note with it: 50 μM final drug concentration; for fold induction at 50 µM: Pseudomonas aeruginosa, 3 h.
For experiment [2], the system named is E. faecium. It is filed as cell-based, Enterococcus faecium. Conditions: 50 μM final drug concentration; for fold induction at 50 µM: Enterococcus faecium, 3 h.
The test system of experiment [3] is E. cloacae. It is filed as cell-based, Enterobacter cloacae. Conditions: 50 μM final drug concentration; for fold induction at 50 µM: Enterobacter cloacae, 3 h.
Experiment [4] concerns K. pneumoniae. It is filed as cell-based, Klebsiella pneumoniae. Conditions: 50 μM final drug concentration; for fold induction at 50 µM: Klebsiella pneumoniae, 3 h.
Experiment [5] deals with A. baumannii strain 98-37-09. It is filed as cell-based, Acinetobacter baumannii. The note with it: 50 μM final drug concentration; for fold induction at 50 µM: Acinetobacter baumannii, 983709, 3 h.
Experiment [6] relates to S. aureus strain USA300-0114. It is filed as cell-based, Staphylococcus aureus. The note with it: 50 μM final drug concentration; for fold induction at 50 µM: Staphylococcus aureus, USA300, 3 h.
In experiment [7] the test system is E. coli. It is filed as cell-based, Escherichia coli. The note with it: 50 μM final drug concentration; for fold induction at 50 µM: Escherichia coli, 3 h.
[8] abbreviates: planktonic P. aeruginosa, cutoff for positive-scoring molecules 3-fold increase, read-out: AK-based Prestwick Library Screening Results, P. aeruginosa (increase in extracellular AK activity).
[9] abbreviates: planktonic E. faecium, cutoff for positive-scoring molecules 3-fold increase, read-out: AK-based Prestwick Library Screening Results, E. faecium (increase in extracellular AK activity).
Setting [10] is: planktonic E. cloacae, cutoff for positive-scoring molecules 3-fold increase, read-out: AK-based Prestwick Library Screening Results, E. cloacae (increase in extracellular AK activity).
The mark [11] stands for this setting: planktonic K. pneumoniae, cutoff for positive-scoring molecules 3-fold increase, read-out: AK-based Prestwick Library Screening Results, K. pneumoniae (increase in extracellular AK activity).
[12] abbreviates: planktonic A. baumannii, cutoff for positive-scoring molecules 3-fold increase, read-out: AK-based Prestwick Library Screening Results, A. baumannii (increase in extracellular AK activity).
Setting [13] is: planktonic S. aureus, cutoff for positive-scoring molecules 3-fold increase, read-out: AK-based Prestwick Library Screening Results, S. aureus (increase in extracellular AK activity).
The mark [14] stands for this setting: planktonic E. coli, cutoff for positive-scoring molecules 3-fold increase, read-out: AK-based Prestwick Library Screening Results, E. coli (increase in extracellular AK activity).

Consider `CC1=C(C(=O)O)N2C(=O)[C@@H](NC(=O)[C@H](N)c3ccccc3)[C@H]2SC1` [Cephalexin monohydrate], for which the fold induction at 50 µM in experiment [1] (setting [8]) amounted to 0.8; in experiment [2] (setting [9]), 0.9; in experiment [3] (setting [10]), 1.4; in experiment [4] (setting [11]), 0.7; in experiment [5] (setting [12]), 0.9; in experiment [6] (setting [13]) it was 0.7. Further, in experiment [7] (setting [14]), the fold induction at 50 µM came to 0.8.

For the compound `CC(=O)OCC1=C(C(=O)O)N2C(=O)[C@@H](N)[C@H]2SC1` [Cephalosporanic acid, 7-amino], in experiment [1] (planktonic P. aeruginosa, […]), the “AK-based Prestwick Library Screening Results, P. aeruginosa (increase in extracellular AK activity)” value is listed as 0.8. The “AK-based Prestwick Library Screening Results, E. faecium (increase in extracellular AK activity)” value in experiment [2] (planktonic E. faecium, […]) amounted to 0.9. Also, the “AK-based Prestwick Library Screening Results, E. cloacae (increase in extracellular AK activity)” value in experiment [3] (planktonic E. cloacae, […]) amounted to 0.8. Further, in experiment [4] (planktonic K. pneumoniae, […]), the “AK-based Prestwick Library Screening Results, K. pneumoniae (increase in extracellular AK activity)” value is listed as 0.7. Moreover, the “AK-based Prestwick Library Screening Results, A. baumannii (increase in extracellular AK activity)” value in experiment [5] (planktonic A. baumannii, […]) amounted to 0.8. The “AK-based Prestwick Library Screening Results, S. aureus (increase in extracellular AK activity)” value in experiment [6] (planktonic S. aureus, […]) worked out at 0.6. Moreover, the “AK-based Prestwick Library Screening Results, E. coli (increase in extracellular AK activity)” value in experiment [7] (planktonic E. coli, […]) was 0.9.

Take `CC(=O)OCC1=C(C(=O)O)N2C(=O)[C@@H](NC(=O)Cc3cccs3)[C@H]2SC1` [Cephalothin sodium salt]: the fold induction at 50 µM in experiment [1] (cutoff for positive-scoring molecules 3-fold increase, read-out: AK-based Prestwick Library Screening Results, P. aeruginosa (fold increase in extracellular AK activity)) came out at 1.1; in experiment [2] (cutoff for positive-scoring molecules 3-fold increase, read-out: AK-based Prestwick Library Screening Results, E. faecium (fold increase in extracellular AK activity)) it was 1; in experiment [3] (cutoff for positive-scoring molecules 3-fold increase, read-out: AK-based Prestwick Library Screening Results, E. cloacae (fold increase in extracellular AK activity)), 2; in experiment [4] (cutoff for positive-scoring molecules 3-fold increase, read-out: AK-based Prestwick Library Screening Results, K. pneumoniae (fold increase in extracellular AK activity)) it was 3.2; in experiment [5] (cutoff for positive-scoring molecules 3-fold increase, read-out: AK-based Prestwick Library Screening Results, A. baumannii (fold increase in extracellular AK activity)), 1.1; in experiment [6] (cutoff for positive-scoring molecules 3-fold increase, read-out: AK-based Prestwick Library Screening Results, S. aureus (fold increase in extracellular AK activity)), 5.3. Besides, the fold induction at 50 µM in experiment [7] (cutoff for positive-scoring molecules 3-fold increase, read-out: AK-based Prestwick Library Screening Results, E. coli (fold increase in extracellular AK activity)) worked out at 11.8.

`O=C(O)COCCN1CCN(C(c2ccccc2)c2ccc(Cl)cc2)CC1` (centres unmarked) [Cetirizine dihydrochloride]: the fold induction at 50 µM in experiment [1] (setting [8]) was determined as 0.9; in experiment [2] (setting [9]), 0.9; in experiment [3] (setting [10]), 0.9; in experiment [4] (setting [11]), 0.7; in experiment [5] (setting [12]), 1.1; in experiment [6] (setting [13]), 0.7. For the same compound, the fold induction at 50 µM in experiment [7] (setting [14]) was 0.9.

Turning to `C[C@H](CCC(=O)O)[C@H]1CC[C@H]2[C@@H]3[C@H](O)C[C@@H]4C[C@H](O)CC[C@]4(C)[C@H]3CC[C@]12C` [Chenodiol], the fold induction at 50 µM in experiment [1] (planktonic P. aeruginosa, 384-well, cutoff for positive-scoring molecules 3-fold increase, read-out: AK-based Prestwick Library Screening Results: P. aeruginosa (increase in extracellular AK activity)) turned out to be 1.2; in experiment [2] (planktonic E. faecium, 384-well, cutoff for positive-scoring molecules 3-fold increase, read-out: AK-based Prestwick Library Screening Results: E. faecium (increase in extracellular AK activity)), 1; in experiment [3] (planktonic E. cloacae, 384-well, cutoff for positive-scoring molecules 3-fold increase, read-out: AK-based Prestwick Library Screening Results: E. cloacae (increase in extracellular AK activity)) it was 1.5; in experiment [4] (planktonic K. pneumoniae, 384-well, cutoff for positive-scoring molecules 3-fold increase, read-out: AK-based Prestwick Library Screening Results: K. pneumoniae (increase in extracellular AK activity)), 0.8; in experiment [5] (planktonic A. baumannii, 384-well, cutoff for positive-scoring molecules 3-fold increase, read-out: AK-based Prestwick Library Screening Results: A. baumannii (increase in extracellular AK activity)), 1; in experiment [6] (planktonic S. aureus, 384-well, cutoff for positive-scoring molecules 3-fold increase, read-out: AK-based Prestwick Library Screening Results: S. aureus (increase in extracellular AK activity)) it was 1.7. Besides, the fold induction at 50 µM in experiment [7] (planktonic E. coli, 384-well, cutoff for positive-scoring molecules 3-fold increase, read-out: AK-based Prestwick Library Screening Results: E. coli (increase in extracellular AK activity)) worked out at 1.2.

As for `COc1cc(-c2ccc(N=Nc3ccc4c(S(=O)(=O)[O-])cc(S(=O)(=O)[O-])c(N)c4c3O)c(OC)c2)ccc1N=Nc1ccc2c(S(=O)(=O)[O-])cc(S(=O)(=O)[O-])c(N)c2c1O.[Na+].[Na+].[Na+].[Na+]` [Chicago sky blue 6B], in experiment [1] (planktonic P. aeruginosa, cutoff for positive-scoring molecules 3-fold increase), the “AK-based Prestwick Library Screening Results, P. aeruginosa (increase in extracellular AK activity)” value is given as 0.4. Also, in experiment [2] (planktonic E. faecium, cutoff for positive-scoring molecules 3-fold increase), the “AK-based Prestwick Library Screening Results, E. faecium (increase in extracellular AK activity)” value was 0.5. The “AK-based Prestwick Library Screening Results, E. cloacae (increase in extracellular AK activity)” value in experiment [3] (planktonic E. cloacae, cutoff for positive-scoring molecules 3-fold increase) turned out to be 0.9. Also, the “AK-based Prestwick Library Screening Results, K. pneumoniae (increase in extracellular AK activity)” value in experiment [4] (planktonic K. pneumoniae, cutoff for positive-scoring molecules 3-fold increase) was found to be 0.3. Moreover, the “AK-based Prestwick Library Screening Results, A. baumannii (increase in extracellular AK activity)” value in experiment [5] (planktonic A. baumannii, cutoff for positive-scoring molecules 3-fold increase) was found to be 0.4. For the same compound, in experiment [6] (planktonic S. aureus, cutoff for positive-scoring molecules 3-fold increase), the “AK-based Prestwick Library Screening Results, S. aureus (increase in extracellular AK activity)” value stood at 0.0. In experiment [7] (planktonic E. coli, cutoff for positive-scoring molecules 3-fold increase), the “AK-based Prestwick Library Screening Results, E. coli (increase in extracellular AK activity)” value worked out at 0.5.

Take `O=C(O)CCCc1ccc(N(CCCl)CCCl)cc1` [Chlorambucil]: the fold induction at 50 µM stood at 0.8 in experiment [1] (planktonic P. aeruginosa, […], read-out: AK-based Prestwick library screening result, P. aeruginosa (fold increase in extracellular AK activity)); 0.9 in experiment [2] (planktonic E. faecium, […], read-out: AK-based Prestwick library screening result, E. faecium (fold increase in extracellular AK activity)); 1.2 in experiment [3] (planktonic E. cloacae, […], read-out: AK-based Prestwick library screening result, E. cloacae (fold increase in extracellular AK activity)); 0.7 in experiment [4] (planktonic K. pneumoniae, […], read-out: AK-based Prestwick library screening result, K. pneumoniae (fold increase in extracellular AK activity)); 0.9 in experiment [5] (planktonic A. baumannii, […], read-out: AK-based Prestwick library screening result, A. baumannii (fold increase in extracellular AK activity)); 0.8 in experiment [6] (planktonic S. aureus, […], read-out: AK-based Prestwick library screening result, S. aureus (fold increase in extracellular AK activity)). Further, in experiment [7] (planktonic E. coli, […], read-out: AK-based Prestwick library screening result, E. coli (fold increase in extracellular AK activity)), the fold induction at 50 µM is 0.9.

Regarding `O=C(N[C@H](CO)[C@H](O)c1ccc([N+](=O)[O-])cc1)C(Cl)Cl` [Chloramphenicol], the fold induction at 50 µM worked out at 0.8 in experiment [1] (384-well format, cutoff for positive-scoring molecules 3-fold increase, read-out: AK-based Prestwick Library Screening Results, P. aeruginosa (increase in extracellular AK activity)); 0.8 in experiment [2] (384-well format, cutoff for positive-scoring molecules 3-fold increase, read-out: AK-based Prestwick Library Screening Results, E. faecium (increase in extracellular AK activity)); 1.5 in experiment [3] (384-well format, cutoff for positive-scoring molecules 3-fold increase, read-out: AK-based Prestwick Library Screening Results, E. cloacae (increase in extracellular AK activity)); 0.2 in experiment [4] (384-well format, cutoff for positive-scoring molecules 3-fold increase, read-out: AK-based Prestwick Library Screening Results, K. pneumoniae (increase in extracellular AK activity)); 1 in experiment [5] (384-well format, cutoff for positive-scoring molecules 3-fold increase, read-out: AK-based Prestwick Library Screening Results, A. baumannii (increase in extracellular AK activity)); 9.7 in experiment [6] (384-well format, cutoff for positive-scoring molecules 3-fold increase, read-out: AK-based Prestwick Library Screening Results, S. aureus (increase in extracellular AK activity)). Also, in experiment [7] (384-well format, cutoff for positive-scoring molecules 3-fold increase, read-out: AK-based Prestwick Library Screening Results, E. coli (increase in extracellular AK activity)), the fold induction at 50 µM was found to be 0.7.
